According to ChEMBL document CHEMBL1142918, “Carbonic anhydrase and matrix metalloproteinase inhibitors. Inhibition of human tumor-associated isozymes IX and cytosolic isozyme I and II with sulfonylated hydroxamates” (Bioorg Med Chem, 2007):

Experiments:
Carbonic anhydrase 1 = Carbonic anhydrase 1 (Homo sapiens, UniProt P00915)
Description: Inhibition of human recombinant carbonic anhydrase 1 by CO2 hydration method

Carbonic anhydrase 9 = Carbonic anhydrase 9 (Homo sapiens, UniProt Q16790)
Description: Inhibition of human recombinant carbonic anhydrase 9 by CO2 hydration method

[1] = target: 72 kDa type IV collagenase (Homo sapiens, UniProt P08253)
Description: Inhibition of human recombinant MMP2 expressed in mouse myeloma cells

[2] = target: Matrix metalloproteinase-9 (Homo sapiens, UniProt P14780)
Sequence of Matrix metalloproteinase-9 (P14780 whole entry): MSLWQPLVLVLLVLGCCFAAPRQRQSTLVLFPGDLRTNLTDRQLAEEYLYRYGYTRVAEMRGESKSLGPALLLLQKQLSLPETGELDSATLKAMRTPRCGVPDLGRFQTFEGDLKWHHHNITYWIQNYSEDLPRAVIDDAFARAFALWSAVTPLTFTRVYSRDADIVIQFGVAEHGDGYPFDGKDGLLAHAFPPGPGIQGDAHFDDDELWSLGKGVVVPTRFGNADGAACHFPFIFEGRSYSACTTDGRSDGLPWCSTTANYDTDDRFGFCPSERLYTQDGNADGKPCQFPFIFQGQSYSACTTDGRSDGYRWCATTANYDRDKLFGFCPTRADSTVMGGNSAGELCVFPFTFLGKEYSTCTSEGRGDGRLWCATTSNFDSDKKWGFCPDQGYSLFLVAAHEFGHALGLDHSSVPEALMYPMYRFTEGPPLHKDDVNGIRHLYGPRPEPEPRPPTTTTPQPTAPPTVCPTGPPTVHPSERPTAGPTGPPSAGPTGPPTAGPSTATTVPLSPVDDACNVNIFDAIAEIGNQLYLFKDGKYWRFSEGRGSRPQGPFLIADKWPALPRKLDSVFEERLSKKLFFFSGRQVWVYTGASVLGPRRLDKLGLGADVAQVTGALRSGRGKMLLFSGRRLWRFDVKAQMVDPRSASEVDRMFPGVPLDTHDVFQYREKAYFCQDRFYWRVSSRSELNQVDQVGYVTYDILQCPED
Description: Inhibition of human recombinant MMP9 expressed in mouse myeloma cells

Carbonic anhydrase 2 = Carbonic anhydrase 2 (Homo sapiens, UniProt P00918)
Description: Inhibition of human recombinant carbonic anhydrase 2 by CO2 hydration method

Sequence of Carbonic anhydrase 1 (P00915 whole entry): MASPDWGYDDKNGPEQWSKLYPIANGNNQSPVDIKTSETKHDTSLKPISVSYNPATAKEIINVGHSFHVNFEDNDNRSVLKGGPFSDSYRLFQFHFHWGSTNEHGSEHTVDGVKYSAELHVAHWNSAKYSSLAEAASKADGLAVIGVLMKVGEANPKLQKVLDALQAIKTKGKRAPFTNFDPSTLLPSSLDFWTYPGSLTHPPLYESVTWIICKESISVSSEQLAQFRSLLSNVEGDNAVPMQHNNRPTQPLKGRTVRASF
Sequence of 72 kDa type IV collagenase (P08253 whole entry): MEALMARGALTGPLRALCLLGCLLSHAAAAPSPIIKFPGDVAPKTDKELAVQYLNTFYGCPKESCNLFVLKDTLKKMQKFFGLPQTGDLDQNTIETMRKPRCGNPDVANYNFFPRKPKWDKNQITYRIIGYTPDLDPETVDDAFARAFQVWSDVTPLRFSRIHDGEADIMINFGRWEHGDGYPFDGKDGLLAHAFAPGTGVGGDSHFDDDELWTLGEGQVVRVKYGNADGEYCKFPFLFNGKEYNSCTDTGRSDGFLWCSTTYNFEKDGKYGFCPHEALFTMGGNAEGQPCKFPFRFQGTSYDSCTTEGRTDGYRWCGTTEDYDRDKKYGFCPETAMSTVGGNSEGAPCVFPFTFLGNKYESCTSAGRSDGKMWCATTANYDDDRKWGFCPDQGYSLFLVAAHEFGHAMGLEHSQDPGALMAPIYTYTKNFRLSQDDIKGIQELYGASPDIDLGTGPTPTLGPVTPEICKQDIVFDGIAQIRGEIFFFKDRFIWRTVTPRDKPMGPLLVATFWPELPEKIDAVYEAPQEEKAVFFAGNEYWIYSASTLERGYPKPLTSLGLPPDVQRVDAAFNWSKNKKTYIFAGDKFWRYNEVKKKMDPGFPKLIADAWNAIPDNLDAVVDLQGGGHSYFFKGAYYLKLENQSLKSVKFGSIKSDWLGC

Row | Structure (SMILES) | Ki (Carbonic anhydrase 1) [µM] | Ki (Carbonic anhydrase 9) [µM] | IC50 [1] [µM] | IC50 [2] [µM] | Ki (Carbonic anhydrase 2) [µM]
1 | COc1ccc(S(=O)(=O)N(CC(=O)NO)OCc2ccccc2)cc1 | 0.88 | 7.5 | 1.06 | 0.87 | 0.096
2 | COc1ccc(S(=O)(=O)N(CC(=O)NO)OC(C)C)cc1 | 4.1 | 9.5 | 4.9 | 3.4 | 0.091
3 | COc1ccc(S(=O)(=O)N(CC(=O)NO)OCc2ccc(Cl)cc2)cc1 | 156 | 9.3 | 1.5 | 0.33 | 4.2
4 | COc1ccc(S(=O)(=O)N(CC(=O)NO)OC2C3CC4CC(C3)CC2C4)cc1 (stereo not drawn) | 0.9 | 7.8 | 1.98 | 2 | 0.096
5 | O=C(CNOCc1ccc(Cl)cc1)NO | 10 | 8.8 | 137 | 261 | 4.8
6 | O=C(CNOCc1ccccc1)NO | 490 | 6.7 | 94 | 256 | 94
7 | COc1ccc(S(=O)(=O)N(CC(=O)NO)OCc2ccc(OCc3ccccc3)cc2)cc1 | 5.9 | 8.7 | 2.1 | 1.83 | 0.095
8 | COc1ccc(S(=O)(=O)N(Cc2cccnc2)[C@@H](C(=O)NO)C(C)C)cc1 [CGS-27023A] | 281 | 7.8 |  |  | 8.6
9 | CCC(C)ON(C(C(=O)NO)C(C)C)S(=O)(=O)c1ccc(OC)cc1 (stereo not drawn) | 9.7 | 9.2 | 0.73 | 0.286 | 9.6
10 | CCCCC(NOCc1ccc(Cl)cc1)C(=O)NO (stereo not drawn) | 10.2 | 6.9 | 81.8 | 125 | 6.1
11 | CCON(CC(=O)NO)S(=O)(=O)c1ccc(OC)cc1 | 8.91 | 9 | 9.6 | 2.2 | 8.7
12 | CCC(C)C(NOCc1ccccc1)C(=O)NO (stereo not drawn) | 435 | 7.1 | 151 | 352 | 267
13 | COc1ccc(S(=O)(=O)N(OC(C)C)C(C(=O)NO)C(C)C)cc1 (stereo not drawn) | 9 | 9.3 | 0.66 | 0.37 | 0.094
14 | CC(NOCc1ccc(Cl)cc1)C(=O)NO (stereo not drawn) | 9.8 | 9.2 | 68 | 141 | 4.7
15 | CCCCCCCCCCCCCCON(CC(=O)NO)S(=O)(=O)c1ccc(OC)cc1 | 0.89 | 7.4 | 30 | 33 | 0.097
16 | CCCCC(NOCc1ccccc1)C(=O)NO (stereo not drawn) | 520 | 7.6 | 33.7 | 81.5 | 7.8
